In US11660280B2, “Treatment of drug resistant gliomas” (OKLAHOMA MEDICAL RESEARCH FOUNDATION, priority 2017, dated 2023):

Legend:
F98 tumors = assay: RT-PCR of RNA isolated from F98 untreated and OKN-007-treated tumors; type: in vivo, rat; conditions: OKN-007-treated vs untreated F98 tumors
Experimental: Mice and Treatments. Animal studies were conducted in accordance to the OMRF IACUC (Institutional Animal Care and Use Committee) policies, which follow NIH guidelines. For the F98 rat glioma cell implantation model, F98 cells (10^5 in 10-μ1 volume) were intracerebrally implanted with a stereotaxic device (2 mm lateral and 2 mm anterior to the bregma, and at a 3 mm depth) in a total of 15 Fischer 344 rats (male 200-250 gm). The animals were divided into two groups once tumors reached 10-20 mm^3 in volume (as determined by MRI): OKN-007 treated (n=8) and untreated (UT) (n=7) groups. Rats were treated until tumors reached 200-250 mm^3 in volume or for a total of 4-6 weeks. For the G55 GBM cell implantation model, two-month-old male nude mice (Hsd:Athymic Nude-Foxnlnu mice; Harlan Inc., Indianapolis, IN) were implanted intracerebrally with human G55 xenograft cells (1×10^6) per mL suspended in 4 μL in cell culture media of 1% agarose solution. Once tumors reached 10-15 mm^3 (determined via MRI), mice were either treated daily with OKN-007 in the drinking water (150 mg/kg; 0.20% w/v for a 20 g mouse), or every 3 days with TMZ (30 mg/kg). OKN-007 was dissolved in water and made fresh every 2 days. Water bottles were weighed, and the amount of OKN-007 consumed per mouse was determined. […] The average intake of OKN-007 was approximately 140-150 mg/kg/day/mouse. TMZ was dissolved in 5% DMSO and 5% solutol-15 in sterile saline and administered via gavage. Mice were treated until the tumors reached 100-150 mm^3 or for a total of 4-6 weeks. All groups were stratified to ensure that tumor sizes were similar before initiation of treatment.
RNA isolation and preparation. For the rat F98 glioma study, all rats were euthanized after the last MRI examination. The brain of each animal was removed, and snap frozen in liquid nitrogen, before storage in a −80° C. freezer. Total RNA from all tumor tissues from all treatment groups was purified with an RNeasy Mini Kit (Qiagen), and quantified by spectrophotometry (Nanodrop). cDNA was synthesized using SuperScript IV Reverse Transcriptase Kit (Invitrogen).

[1] = test system: LBP (lipopolysaccharide binding protein); assay: LBP ELISA in tumor tissue and serum of F98 glioma-bearing rats; type: in vivo, rat
From the text: The inventor also discovered a potential biomarker, LBP (lipopolysaccharide binding protein), that is elevated in tumors of rat F98 glioma-bearing rats (assessed by ELISA), and in GBM human tissue samples (assessed by immunohistochemistry). […] The inventor used an ELISA kit for LBP to assess this biomarker as an efficacy marker in both G55-tumor-bearing mice in both tumor tissue and blood serum, either untreated or treated with TMZ, OKN-007 or TMZ +OKN-007.
Mice and Treatments. Animal studies were conducted in accordance to the OMRF IACUC (Institutional Animal Care and Use Committee) policies, which follow NIH guidelines. For the F98 rat glioma cell implantation model, F98 cells (10^5 in 10-μ1 volume) were intracerebrally implanted with a stereotaxic device (2 mm lateral and 2 mm anterior to the bregma, and at a 3 mm depth) in a total of 15 Fischer 344 rats (male 200-250 gm). The animals were divided into two groups once tumors reached 10-20 mm^3 in volume (as determined by MRI): OKN-007 treated (n=8) and untreated (UT) (n=7) groups. […] Once tumors reached 10-15 mm^3 (determined via MRI), mice were either treated daily with OKN-007 in the drinking water (150 mg/kg; 0.20% w/v for a 20 g mouse), or every 3 days with TMZ (30 mg/kg). […] Water bottles were weighed, and the amount of OKN-007 consumed per mouse was determined. […]

G55 GBM cells = assay: Cell migration in laminin-coated PDMS micro-channels; type: cell-based, human; conditions: at 22 h and 46 h following treatment
Experimental: Cell migration. For the migration study, 6-well chambers with PDMS (polydimethylsiloxane) micro-channels inside were coated with 10 μg/ml of laminin (Sigma-Aldrich) in each well. G55 cells were seeded (50×10^3) in 100 μl and supplemented with 2 ml of media in each well. The chambers were incubated in the incubator at 37° C. with 5% CO2 until scheduled time points. Some chambers were treated with OKN-007, TMZ or OKN-007 combined with TMZ (1 μL/mL media for both OKN-007 and TMZ, as well as when the two are combined), and for each treatment group one well was left untreated as a control. Images of the cells inside the microchannels were taken using an Olympus CK40 inverted microscope (Japan) under 10× and the distances of the same cells traveled were measured at 22 h, 28 h, and 46 h post seeding, cell migration speed (μm/h) was calculated. Each treatment was repeated at least 3 times and data shown as mean ±S.D.

[2] = test system: GBM cells (LN229, U138, G55, U251, T98, LN18); assay: Cell viability at 1 mM vs 2 mM OKN; type: cell-based, human

CC(C)(C)[N+]([O-])=Cc1ccc(S(=O)(=O)O)cc1S(=O)(=O)O [OKN-007, 2,4-disulfonyl phenyl tert-butyl nitrone]
RT-PCR fold change in gene expression ADAMTS1 (F98 tumors; Down-regulated): 3.57 fold
RT-PCR fold change in gene expression CD44 (F98 tumors; Down-regulated): 3.03 fold
RT-PCR fold change in gene expression CDH3 (F98 tumors; Down-regulated): 3.70 fold
RT-PCR fold change in gene expression COL1A1 (F98 tumors; Down-regulated): 2.27 fold
RT-PCR fold change in gene expression COL2A1 (F98 tumors; Down-regulated): 2.33 fold
RT-PCR fold change in gene expression COL3A1 (F98 tumors; Down-regulated): 3.13 fold
RT-PCR fold change in gene expression COL4A1 (F98 tumors; Down-regulated): 2.94 fold
RT-PCR fold change in gene expression COL4A2 (F98 tumors; Down-regulated): 2.63 fold
RT-PCR fold change in gene expression COL5A1 (F98 tumors; Down-regulated): 3.33 fold
RT-PCR fold change in gene expression COL6A1 (F98 tumors; Down-regulated): 2.94 fold
RT-PCR fold change in gene expression COL8A1 (F98 tumors; Down-regulated): 2.33 fold
RT-PCR fold change in gene expression CTGF (F98 tumors; Down-regulated): 2.63 fold
RT-PCR fold change in gene expression ECM1 (F98 tumors; Down-regulated): 2.86 fold
RT-PCR fold change in gene expression EMILIN1 (F98 tumors; Down-regulated): 2.27 fold
RT-PCR fold change in gene expression FN1 (F98 tumors; Down-regulated): 2.63 fold
RT-PCR fold change in gene expression ITAD (F98 tumors; Down-regulated): 2.38 fold
RT-PCR fold change in gene expression ITGA2 (F98 tumors; Down-regulated): 3.7 fold
RT-PCR fold change in gene expression ITGB3 (F98 tumors; Down-regulated): 2.13 fold
RT-PCR fold change in gene expression ITGB4 (F98 tumors; Down-regulated): 3.70 fold
RT-PCR fold change in gene expression LAMC1 (F98 tumors; Down-regulated): 2.33 fold
RT-PCR fold change in gene expression MMP1 A (F98 tumors; Down-regulated): 4.17 fold
RT-PCR fold change in gene expression MMP2 (F98 tumors; Down-regulated): 2.86 fold
RT-PCR fold change in gene expression MMP3 (F98 tumors; Down-regulated): 3.85 fold
RT-PCR fold change in gene expression MMP7 (F98 tumors; Down-regulated): 2.86 fold
RT-PCR fold change in gene expression MMP8 (F98 tumors; Down-regulated): 3.85 fold
RT-PCR fold change in gene expression MMP9 (F98 tumors; Down-regulated): 7.14 fold
RT-PCR fold change in gene expression MMP12 (F98 tumors; Down-regulated): 16.67 fold
RT-PCR fold change in gene expression MMP13 (F98 tumors; Down-regulated): 50.00 fold
RT-PCR fold change in gene expression MMP14 (F98 tumors; Down-regulated): 2.86 fold
RT-PCR fold change in gene expression POSTN (F98 tumors; Down-regulated): 33.33 fold
RT-PCR fold change in gene expression RGDC (F98 tumors; Down-regulated): 3.45 fold
RT-PCR fold change in gene expression SELE (F98 tumors; Down-regulated): 2.86 fold
RT-PCR fold change in gene expression SELL (F98 tumors; Down-regulated): 2.13 fold
RT-PCR fold change in gene expression SELP (F98 tumors; Down-regulated): 2.13 fold
RT-PCR fold change in gene expression SPP1 (F98 tumors; Down-regulated): 8.33 fold
RT-PCR fold change in gene expression TGFBI (F98 tumors; Down-regulated): 2.22 fold
RT-PCR fold change in gene expression THBS2 (F98 tumors; Down-regulated): 3.7 fold
RT-PCR fold change in gene expression TIMP1 (F98 tumors; Down-regulated): 3.45 fold
RT-PCR fold change in gene expression CDH4 (F98 tumors; Up-regulated): 4.06 fold
RT-PCR fold change in gene expression CNTN1 (F98 tumors; Up-regulated): 15.03 fold
RT-PCR fold change in gene expression HAPLN1 (F98 tumors; Up-regulated): 3.1 fold
RT-PCR fold change in gene expression MMP16 (F98 tumors; Up-regulated): 4.72 fold
RT-PCR fold change in gene expression NCAM2 (F98 tumors; Up-regulated): 11.63 fold
RT-PCR fold change in gene expression SGCE (F98 tumors; Up-regulated): 8.06 fold
RT-PCR fold change in gene expression SPOC1 (F98 tumors; Up-regulated): 11.08 fold
RT-PCR fold change in gene expression SYT1 (F98 tumors; Up-regulated): 19.03 fold
RT-PCR fold change in gene expression VTN (F98 tumors; Up-regulated): 3.03 fold
LBP levels in tumor tissues compared to untreated gliomas ([1]; F98 glioma bearing rats, p<0.0001): significant decrease in LBP levels
serum levels of LBP compared to untreated tumor-bearing rats ([1]; F98 glioma-bearing rats, p<0.001): significantly lower
cell migration speed compared to untreated (UT) cells (G55 GBM cells): significantly decreased
reduction of cell viabilities, 1 mM OKN compared to the 2 mM concentration ([2]; LN229, U138, G55 cells): just as effective
reduction of cell viabilities, 2 mM OKN compared to the 1 mM concentration ([2]; U251, T98, LN18 cells): slightly more effective
